Data taken from patent publication US20120010237A1, “COMPOUNDS HAVING ANTIPARASITIC OR ANTI-INFECTIOUS ACTIVITY” (The Government of the United States of America dba The …, priority 2008, published 2012).
Where “and” joins values, the source holds several entries; their conditions need not be identical. Equal entries are not always repeated. Where two headings read alike, the source gives them in different places.

Tests used:
[1] = tested on: P. falciparum (D6, Dd2, Tm90.C2B); assay: In vitro activity and pharmaco-resistance pattern against a panel of P. falciparum parasites; format: cell-based, Plasmodium falciparum; conditions: for reduction of potency relative to ELQ-121: in vitro, relative to the 5,7-difluoro parent ELQ-121; for cross-resistance / sensitivity pattern across strains: atovaquone-resistant Tm90.C2B compared with D6 and Dd2, in words; for antiplasmodial activity in vitro (in words): structure-activity comparison with endochin
Description: (§1) Plasmodium falciparum strains D6 and Dd2 were obtained from the MR4 (ATCC, Manassas, Va., USA). D6 is sensitive to chloroquine but mildly resistant to mefloquine while Dd2 is resistant to multiple quinoline and antifolate antimalarial agents. Tm90.C2B is resistant to atovaquone, chloroquine, mefloquine, and quinine.
(§2) Three different laboratory strains of P. falciparum were cultured in human erythrocytes by standard methods under a low oxygen atmosphere (5% O2, 5% CO2, 90% N2) in an environmental chamber as described in Trager, W., and J. B. Jensen. 1976. Human malaria parasites in continuous culture. Science 193:673-5. The culture medium was RPMI-1640, supplemented with 25 mM HEPES buffer, 25 mg/L gentamicin sulfate, 45 mg/L hypoxanthine, 10 mM glucose, 2 mM glutamine, and 0.5% Albumax II (complete medium). The parasites were maintained in fresh human erythrocytes suspended at a 2% hematocrit in complete medium at 37° C. Stock cultures were sub-passaged every 3 to 4 days by transfer of infected red cells to a flask containing complete medium and uninfected erythrocytes.
(§3) In vitro antimalarial activity of the compounds was assessed by the SYBR Green I fluorescence-based method (the “MSF assay”) described previously by Smilkstein, M., N. Sriwilaijaroen, J. X. Kelly, P. Wilairat, and M. Riscoe. 2004. Simple and inexpensive fluorescence-based technique for high-throughput antimalarial drug screening. Antimicrob Agents Chemother 48:1803-6 with minor modifications (Winter, R. W., J. X. Kelly, M. J. Smilkstein, R. Dodean, G. C. Bagby, R. K. Rathbun, J. I. Levin, D. Hinrichs, and M. K. Riscoe. 2006. Evaluation and lead optimization of anti-malarial acridones. Exp Parasitol 114:47-56). Experiments were set up in triplicate in 96 well plates (Costar, Corning) with two-fold dilutions of each drug across the plate in a total volume of 100 microliters and at a final red blood cell concentration of 2% (v/v). Stock solutions of each drug were prepared by dissolving in ethanol or dimethylsulfoxide (as appropriate) at 10 mM. […] Automated pipeting and dilution was carried out with the aid of a programmable Precision 2000 robotic station (BioTek, Winooski, Vt.). An initial parasitemia of 0.2% was attained by addition of normal uninfected red cells to a stock culture of asynchronous parasite infected red cells (PRBC). The plates were incubated for 72 hrs at 37° C. in an atmosphere of 5% CO2, 5% O2, and 90% N2. After this period the SYBR Green I dye-detergent mixture (100 μl) was added and the plates were incubated at room temperature for an hour in the dark and then placed in a 96-well fluorescence plate reader (Spectramax Gemini-EM, […]) for analysis with excitation and emission wavelength bands centered at 497 and 520 nm, respectively.
(§4) The compounds were screened for antiplasmodial activity in vitro against chloroquine (CQ) sensitive (D6), multidrug resistant (Dd2), and chloroquine/quinine/atovaquone (ATV)-resistant (Tm90.C2B) strains of P. falciparum.

[2] = tested on: Plasmodium falciparum strain D6; assay: SYBR Green I fluorescence-based MSF assay, in vitro antimalarial activity, strain D6; format: cell-based; conditions: chloroquine sensitive strain D6, 72 hrs incubation
Description: as §1, §2, §3, §4

P. gallinaceum = P. gallinaceum in the chick; cited from earlier work
[3] = tested on: Plasmodium falciparum strain Tm90.C2B; format: cell-based
Description: as §1, §2
In vitro antimalarial activity of the compounds was assessed by the SYBR Green I fluorescence-based method (the “MSF assay”) described previously by Smilkstein, M., N. Sriwilaijaroen, J. X. Kelly, P. Wilairat, and M. Riscoe. 2004. Simple and inexpensive fluorescence-based technique for high-throughput antimalarial drug screening. Antimicrob Agents Chemother 48:1803-6 with minor modifications (Winter, R. W., J. X. Kelly, M. J. Smilkstein, R. Dodean, G. C. Bagby, R. K. Rathbun, J. I. Levin, D. Hinrichs, and M. K. Riscoe. 2006. Evaluation and lead optimization of anti-malarial acridones. Exp Parasitol 114:47-56). […] After this period the SYBR Green I dye-detergent mixture (100 μl) was added and the plates were incubated at room temperature for an hour in the dark and then placed in a 96-well fluorescence plate reader (Spectramax Gemini-EM, […]) for analysis with excitation and emission wavelength bands centered at 497 and 520 nm, respectively. […]

Haemoproteus = conditions: male gametocytes undergoing exflagellation, finches infected with Haemoproteus; cited from earlier work
malaria infections = conditions: mice to non-human primates (Rhesus monkeys); cited from earlier work
P. cathemerium = conditions: P. cathemerium/canary; cited from earlier work
P. lophurae = P. lophurae in the turkey; cited from earlier work
[4] = tested on: Plasmodium falciparum strain Dd2; assay: SYBR Green I fluorescence-based MSF assay, in vitro antimalarial activity, strain Dd2; format: cell-based; conditions: multidrug resistant strain Dd2, 72 hrs incubation
Description: as §1
Three different laboratory strains of P. falciparum were cultured in human erythrocytes by standard methods under a low oxygen atmosphere (5% O2, 5% CO2, 90% N2) in an environmental chamber as described in Trager, W., and J. B. Jensen. 1976. Human malaria parasites in continuous culture. Science 193:673-5. […]
In vitro antimalarial activity of the compounds was assessed by the SYBR Green I fluorescence-based method (the “MSF assay”) described previously by Smilkstein, M., N. Sriwilaijaroen, J. X. Kelly, P. Wilairat, and M. Riscoe. […] Simple and inexpensive fluorescence-based technique for high-throughput antimalarial drug screening. […] After this period the SYBR Green I dye-detergent mixture (100 μl) was added and the plates were incubated at room temperature for an hour in the dark and then placed in a 96-well fluorescence plate reader (Spectramax Gemini-EM, […]) for analysis with excitation and emission wavelength bands centered at 497 and 520 nm, respectively. […]

P. yoelii = format: in vivo
Description: The activity of the ester, ELQ-125, against the blood stages was assessed using a modified Thompson procedure (Arba Ager, 1984). Rodent malaria models, vol. 68/1. Springer-Verlag, Berlin. Mice (female, CFI) were infected intravenously with 1-5 million P. yoelii parasitized erythrocytes from a donor animal. Drug administration was initiated once the parasitemia had risen to between 3 to 5% as determined microscopically by examination of Giemsa-stained blood smears. The test compound, ELQ-125, was taken into NeoBee® M-5 (Stephan Company, Northfield, Ill., USA) and used without dilution. The drug was administered by gavage once daily for 3 days. On the 4th day blood films were prepared and the extent of parasitemia was determined microscopically. ED50 and ED90 values (mg/kg/day) were derived from the dose required to reduce the parasite burden by 50% and 90%, respectively, relative to drug-free controls. The procedures involved, together with all matters relating to the care and housing of the animals used in this study, were approved by the Portland VA Medical Center Institutional Animal Care and Use Committee (approval #0807).
Prodrugs containing a water-soluble pro-moiety that could be metabolically released after drug administration were designed and synthesized. […] In each case, ELQ-125, a clear and colorless syrup, was administered orally with NeoBee M-5 (vol.=100 μl).

[5] = tested on: Toxoplasma gondii strain 2F; assay: Anti-T. gondii assay with beta-galactosidase expressing 2F strain in HFF cells; format: cell-based; conditions: compared with the correlation observed for Plasmodium falciparum
Description: Determination of anti-T. gondii IC50 and TD50 values—use of the 2F strain. This method, which employs tachyzoites of Toxoplasma gondii strain 2F that constitutively expresses cytoplasmic Beta-galactosidase, has been described recently by Jones-Brando et al. (Jones-Brando, L., D'angelo, J., Posner, G H, and Yolken, R., 2006, In vitro inhibition of Toxoplasma gondii by four new derivatives of artemisinin, Antimicrobial Agents and Chemotherapy 50: 4206-8). […] Briefly, each drug was dissolved in ethanol or DMSO, as appropriate, at a concentration of 10 mM and diluted with complete Dulbecco's modified Eagle's medium (DMEM) to 1,000 μM. […] After this period, Triton X-100 is added to inactivate the parasite and the color reactions in the wells were read in a microplate reader. For anti-T. gondii IC50 determinations, the plates are read at 570-650 nm. The amount of absorbance (570-650 nm) in wells containing drug, parasites, and CPRG reagent is compared to that in control wells containing T. gondii, HFF cells and CPRG. The amount of absorbance in these wells is directly proportional to the amount of beta-galactosidase activity and thus correlative to the number of viable tachyzoites in each well. Thus, a decrease in the amount of absorbance indicates an inhibition of parasite growth. […]

[6] = chloroquine/quinine/atovaquone-resistant Tm90.C2B clinical isolate, 72 hrs incubation

## CCCCCCCc1c(C)[nH]c2c(F)cc(F)cc2c1=O [6,8-difluoro positional isomer]
[1]
  reduction of potency relative to ELQ-121: ≈ 2,000 fold

## CCCCCCCc1c(C)[nH]c2cc(OC)ccc2c1=O [ELQ-100, endochin]
[2]
  IC50: 3 to 4 nM and 3.8 nM
P. gallinaceum
  efficacy in treatment and prophylaxis: demonstrated efficacy in treatment and prophylaxis
[3]; [6]
  IC50: 11.4 nM
Haemoproteus
  gametocidal action: exerted gametocidal action
Malaria infections
  cure of malaria infections in mammalian species: failed to cure malaria infections
[1]
  cross-resistance / sensitivity pattern across strains: a modest level of ATV cross-resistance
P. cathemerium
  efficacy in bird model: efficacy in treatment and prevention of malaria
P. lophurae
  efficacy in treatment and prophylaxis: demonstrated efficacy in treatment and prophylaxis

## COc1ccc2c(=O)c(CCCCCCCCCCC(F)(F)F)c(C)[nH]c2c1 [ELQ-103]
[2]
  IC50 vs. D6: low nanomolar range
[3]; [6]
  IC50 vs. Tm90.C2B: low nanomolar range
[4]
  IC50 vs. Dd2: low nanomolar range

## CCCCCCCc1c(O)[nH]c2cc(OC)ccc2c1=O [ELQ-106]
[2]
  IC50: > 2500 nM

## CCCCCCCc1c(C)[nH]c2cc(Cl)ccc2c1=O [ELQ-109]
[2]
  IC50: 5.8 nM
[1]
  antiplasmodial activity in vitro (in words): only a modest reduction in in vitro potency

## CCCCCCCc1c(C)[nH]c2cc(O)ccc2c1=O [ELQ-117]
[1]
  antiplasmodial activity in vitro (in words): greatly diminishes antiplasmodial activity

## CCCCCCCc1c(C)nc2cc(F)cc(F)c2c1Cl [ELQ-119]
[1]
  reduction of potency relative to ELQ-121: > 1,000 fold

## CCCCCCCc1c(C)[nH]c2cc(F)ccc2c1=O [ELQ-120]
[1]
  antiplasmodial activity in vitro (in words): only a modest reduction in in vitro potency

## CCCCCCCc1c(C)[nH]c2cc(F)cc(F)c2c1=O [ELQ-121, 2-Methyl-3-(n-heptyl)-5.7-difluorquinolone]
[2]
  IC50: ~0.05 nM
[3]; times higher than IC50 against D6 and Dd2
  IC50 against Tm90.C2B relative to D6 and Dd2: about 300 times
[4]
  IC50: ~0.05 nM

## CCCCCCCc1c(C)[nH]c2cc(Cl)cc(Cl)c2c1=O [ELQ-124]
[1]
  antiplasmodial activity in vitro (in words): weak in vitro activity

## CCCCCCCc1c(C)nc2cc(F)cc(F)c2c1OC(=O)OCCOCCOCCOCCOC [ELQ-125]
P. yoelii; 25 mg/kg/day oral, 3 days, assessed on the day following the last dose
  parasitemia suppressed relative to controls: > 99%
P. yoelii; 25 mg/kg/day oral, 3 days, until euthanized 10 days later
  parasite status during follow-up: remained parasite-free
P. yoelii; 50 mg/kg/day oral in NeoBee M-5, once daily for 3 days, mice
  clearance of parasites from the bloodstream: completely cleared parasites from the bloodstream
P. yoelii; 100 mg/kg/day oral in NeoBee M-5, once daily for 3 days, mice
  clearance of parasites from the bloodstream: completely cleared parasites from the bloodstream
P. yoelii; oral in 100 μl NeoBee M5, once daily for 3 days, mice
  ED90: 22 mg/kg/day
P. yoelii; prodrug ester compared with ELQ-121
  in vivo efficacy of the prodrug (in words): greatly enhanced in vivo efficacy

## CCCCCCCc1c(C)[nH]c2ccccc2c1=O [ELQ-127]
[1]
  cross-resistance / sensitivity pattern across strains: equally active against all three parasite strains
[1]; relative to endochin
  in vitro activity weakened relative to endochin: roughly 5 fold

## CCCCCCCc1c(C)[nH]c2ccc(Cl)cc2c1=O [ELQ-130]
[2]
  IC50: 22.2 nM
[1]
  cross-resistance / sensitivity pattern across strains: equal sensitivity is observed against the atovaquone-resistant Tm90.C2B clinical isolate

## CCCCCCCc1c(C)n(C)c2cc(F)cc(F)c2c1=O [ELQ-134]
[1]
  reduction of potency relative to ELQ-121: about 300 fold
[5]
  growth inhibitory activity against Toxoplasma gondii (in words): enhanced growth inhibitory activity
